# Test results as given in patent US11207315B2, “Emetine compounds for treatment and prevention of flavivirus infection” (FLORIDA STATE UNIVERSITY RESEARCH FOUNDATION, INC., priority 2017, dated 2021).
# Where a name gives a salt, the structure may show the parent alone.
# Assays:
# [1] = system: ZIKV (three strains); test: immunofluorescence staining and quantification of ZIKV positive SNB-19 cells; assay type: cell-based, Zika virus; settings: one of three ZIKV strains; emetine at 0.01, 0.1, or 1 μM
# Procedure: Immunofluorescence (IF) staining (FIG. 2A) and quantification (FIG. 2B) of ZIKV positive SNB-19 cells following infection with one of three ZIKV strains and treatment with emetine at 0.01, 0.1, or 1 μM. Emetine is effective against all three ZIKV strains tested.
# Preparation of ZIKV and cell infection. The MR766-ZIKV stock with the titer of 1×10^5 Tissue Culture Infective Dose (TCID)/ml in the form of culture fluid from an infected rhesus Macaca cell line LLC-MK2, was originally obtained from ZeptoMetrix (Buffalo, N.Y.). The FSS13025-ZIKV strain was obtained from Drs. Robert Tesh and Pei-Yong Shi (University of Texas Medical Branch, Galveston, Tex.). The PRVABC59 strain was obtained from ATCC (Manassas, Va.). Original viral stocks were then amplified in Aedes albopictus clone C6/36 cells. Briefly, C6/36 cells were inoculated with viral inoculum for one hour at 28° C. in low volume of media (3 ml per T-75 flask), with rocking every 15 minutes, before addition of 17 ml media. Viral inoculated cells were incubated at 28° C. for 6-7 days before harvesting of supernatant. C6/36-amplified ZIKV titer was determined by infecting Vero cells for 48 hours with a methyl-cellulose overlay and analyzed for focus-forming units per mL (FFU/ml). In mock infections, an equal volume of spent uninfected C6/36 culture medium was used. […]
# [2] = system: ZIKV (three strains); test: infectious ZIKV production from SNB-19 cells, focus-forming unit assay on Vero cells; assay type: cell-based; settings: Zika virus, for each of three ZIKV strains
# Procedure: FIGS. 1A-B. Antiviral activity of emetine against ZIKV infection. ZIKV production from human glioblastoma SNB-19 cells treated with increasing concentrations of emetine. 24 hours post-infection, supernatants from SNB-19 cells were titrated onto naïve Vero cells plated in a monolayer in 96-well plates for infectious focus-forming unit assay as previously described and focus forming units quantified.
# (§1) IC50 for each strain is ≤˜10 nM.
# Cell line cultures. The glioblastoma SNB-19 cell line (part of the National Cancer Institute 60 human tumor cell line) was a gift from Dr. David Meckes (Florida State University, Tallahassee, Fla.). SNB-19 cells were maintained at 37° C. in 5% CO2 in […], 1× penicillin/streptomycin, and 10% fetal bovine serum (Invitrogen). The Aedes albopictus C6/36 cell line (ATCC) was maintained at 28° C. in 5% CO2.
# Preparation of ZIKV and cell infection. The MR766-ZIKV stock with the titer of 1×10^5 Tissue Culture Infective Dose (TCID)/ml in the form of culture fluid from an infected rhesus Macaca cell line LLC-MK2, was originally obtained from ZeptoMetrix (Buffalo, N.Y.). The FSS13025-ZIKV strain was obtained from Drs. Robert Tesh and Pei-Yong Shi (University of Texas Medical Branch, Galveston, Tex.). […] C6/36-amplified ZIKV titer was determined by infecting Vero cells for 48 hours with a methyl-cellulose overlay and analyzed for focus-forming units per mL (FFU/ml). […]
# [3] = system: HEK293 cells; test: Toxicity IC50 (cell-killing activity) in the compound screen; assay type: cell-based, Human
# [4] = system: ZIKV; test: serum viral load (ZIKV NS1 ELISA) in ZIKV-challenged mice; assay type: in vivo, Ifnar1−/− mice; settings: for decrease in serum viral load: serum at day 3; for reduction in serum viral load: until day 3
# Procedure: (§2) FIG. 8. Zika virus load estimation in mouse serum following emetine treatment. Serum was separated. NS1 protein was estimated using ZIKV-NS1 ELISA kit (Biofront, Tallahassee, Fla.) as per the manufacturer's protocol. Briefly, 5 μl of the serum was lysed with equal volume of lysis buffer for 30 min at 37° C. A 1:900 dilution of the serum was done using sample dilution buffer and added to ELISA plates. Reactions were quantified using HRP conjugated antibody and TMB. Absorbance was taken at 450 nm after adding the stop solution. Statistical analysis was done using the Mann-Whitney ANOVA. *p<0.05, **p<0.01, ***p<0.001.
# as §2, with “9.” for “8.”, “treatment before and after Zika virus challenge.” for “treatment.”, “1:300” for “1:900”
# NS1 ELISA. The anti-ZIKV NS1 ELISA (ZKV-NS1-EK) was obtained from BioFront Technologies (Tallahassee, Fla.) and used according to the manufacturer's protocol.
# Ifnar1−/− mice (7-8 wk old, male and female, Jackson Lab) were dosed (i.p) with Emetine 1 mg/kg/day (n=6), 2 mg/kg/day (n=8) or saline (Vehicle control, n=8) starting at 24 hours prior to challenging with ZIKV (10^3, Focal forming unit (FFU)) on day 0. Drug was continued until day 6. At peak viremia (day 3), a blood sample was taken from the tail vein and serum was separated and stored at −70° C. till further analysis. The body weight were monitored twice daily until day 10. Mice reaching humane end points were euthanized. With emetine treatment, there was a 30% and 37% decrease in serum viral load with 1 mg/kg and 2 mg/kg treatment, respectively.
# (§3) Ifnar1−/− mice (8 wk old, male and female) were dosed with Emetine 2 mg/kg/day i.p. starting at 24 hours prior (n=8) or 24 after (n=7) the challenging with ZIKV on day 0. Drug was continued till day 3. Mice were euthanized, and blood and liver tissue were collected.
# [5] = system: PRVABC59-ZIKV; test: time of addition: drug added 1 hour prior to or 4 hours post infection, NS1 Western blot and ZIKV-ENV IF staining; assay type: cell-based, Zika virus; settings: added before or after infection; 1 μM
# Procedure: as §1
# Drug (emetine) was added at 1 μM either 1-hour prior to infection with PRVABC59-ZIKV, or 4-hours post infection with PRVABC59-ZIKV.
# FIGS. 6A-B show IF staining of ZIKV-ENV Vero cells after a 24-hour infection. Drug was added at 1 μM either 1-hour prior to infection with PRVABC59-ZIKV, or 4-hours post infection with PRVABC59-ZIKV.
# Immunocytochemistry. Cells were fixed with 4% paraformaldehyde (Sigma) for 15 min at room temperature. Samples were permeabilized and blocked with 0.25% Triton X-100 (Sigma) and 10% donkey or goat serum in PBS for 20 min as previously described (Chiang et al., 2011; [41]; Yoon et al., 2014). Samples were then incubated with primary antibodies at 4° C. overnight, followed by multiple PBST washes and incubation with secondary antibodies for 1 h at room temperature. Slides were mounted using VECTASHIELD with DAPI (Vectorlabs, Burlingame, Calif.). The following primary antibodies were used: anti-flavivirus group antigen (clone D1-4G2-4-15; mouse; 1:500; Millipore), and anti-cleaved caspase-3 ([…]; Rabbit; 1:500; Cell Signaling Technology). Antibodies were prepared in PBS containing 0.25% Triton X-100 and 10% donkey serum. Images were taken by Zeiss LSM 700 and 880 confocal microscopes, Olympus BX61, or Zeiss Axiovert 200M microscope.
# Western blot. […]
# [6] = system: ZIKV; test: liver viral load (NS1 gene expression by real time PCR) in ZIKV-challenged mice; assay type: in vivo, Ifnar1−/− mice; settings: until day 3
# Procedure: FIG. 10. Zika virus load estimation in mouse liver following emetine treatment before and after Zika virus challenge. From 30 mg of liver tissue stored in RNAlater (Qiagen), total RNA was isolated using RNeasy mini kit (Qiagen) and converted to cDNA. Viral NS1 gene expression was estimated by real time PC Relative expression of the NS1 gene was calculated using ZIKV-NS1 specific primers and GAPDH primers. Statistical analysis was done using the Mann-Whitney ANOVA. *p<0.05, **p<0.01, ***p<0.001.
# as §3
# [7] = 2 mg/kg i.p. starting 24 hours after ZIKV challenge
# [8] = 2 mg/kg i.p. starting 24 hours prior to ZIKV challenge
compound,measurement,setting,value
"CC[C@H]1CN2CCc3cc(OC)c(OC)cc3[C@@H]2C[C@@H]1C[C@H]1NCCc2cc(OC)c(OC)cc21 [Emetine, emetine]",ZIKV positive SNB-19 cells (IF),[1],reduces ZIKV infection in a dosage dependent manner
same,IC50,[2],≤ 10 nM
same,Tox IC50,[3],No
same,decrease in serum viral load,[4]; 1 mg/kg/day i.p. from 24 hours prior to challenge,30%
same,decrease in serum viral load,[4]; 2 mg/kg/day i.p. from 24 hours prior to challenge,37%
same,effect on ZIKV infection by time of addition,[5],effective against ZIKV infection when added before or after infection
CC[C@H]1CN2CCc3cc(OC)c(OC)cc3[C@@H]2C[C@@H]1C[C@H]1NCCc2cc(OC)c(OC)cc21 [emetine dihydrochloride],reduction in serum viral load,[4]; [7],32%
same,reduction in serum viral load,[4]; [8],55%
same,reduction in liver viral load,[6]; [7],35%
same,reduction in liver viral load,[6]; [8],42%
